The source of these data is PMC9098913, “In vitro reconstitution of Escherichia coli divisome activation” (Nature Communications, 2022).

This assay relates to FtsZ. The note with it: 1.25 µM FtsZ, FtsA 0.1–0.8 µM. As for the experimental part: Additionally, the reaction chamber contained 4 mM ATP and 4 mM GTP, as well as a scavenging system to minimize photobleaching effects: 30 mM d-glucose, 0.050 mg ml^−1 Glucose Oxidase, 0.016 mg ml^−1 Catalase, 1 mM DTT and 1 mM Trolox. Prior addition of all components a corresponding buffer volume was removed from the chamber to obtain a total reaction volume of 100 µl. The dynamic protein pattern was monitored by time-lapse TIRF microscopy at one frame per 2 s and 50 ms exposure time.
Treadmilling dynamics, were quantified using an automated image analysis protocol previously developed by our group. To visualize colocalization of the co-treadmilling FtsZ & FtsA filaments, we used dual-colour videos obtained at an acquisition rate of one frame per 2 s. The two channels were aligned using FIJI’s 3TP align plugin. Both channels were then subjected to the image subtraction protocol and colocalization was measured as described above.

In the case of “FtsA WT: wild-type E. coli actin-homologue FtsA, membrane anchor of FtsZ”, the “effect on FtsZ treadmilling velocity” value is given as “could not observe a significant effect”.

B1: FtsA R286W (protein)
chain: MIKATDRKLVVGLEIGTAKVAALVGEVLPDGMVNIIGVGSCPSRGMDKGGVNDLESVVKCVQRAIDQAELMADCQISSVYLALSGKHISCQNEIGMVPISEEEVTQEDVENVVHTAKSVRVRDEHRVLHVIPQEYAIDYQEGIKNPVGLSGVRMQAKVHLITCHNDMAKNIVKAVERCGLKVDQLIFAGLASSYSVLTEDERELGVCVVDIGGGTMDIAVYTGGALRHTKVIPYAGNVVTSDIAYAFGTPPSDAEAIKVRHGCALGSIVGKDESVEVPSVGGRPPWSLQRQTLAEVIEPRYTELLNLVNEEILQLQEKLRQQGVKHHLAAGIVLTGGAAQIEGLAACAQRVFHTQVRIGAPLNITGLTDYAQEPYYSTAVGLLHYGKESHLNGEAEVEKRVTASVGSWIKRLNSWLRKEF
modifications: Cy3 or Cy5 at the N-terminus in the labelled form (labelled CLEPTGG peptide conjugated to the 5xGly tag by sortagging); unlabelled protein also used; left off: TwinStrep-SUMO, N-terminal, cleaved | 5x
With B1, the “effect on FtsZ treadmilling velocity” value was “could not detect a difference”.
